Data from PubChem BioAssay AID330 (DTP/NCI, 2004).
Values joined by “and” are separate entries in the source; they are usually repeats but may differ in a detail not shown here. Identical values can stand only once. Inconclusive results and toxic doses are left out. The calls were made as follows: active = survival T/C of 150% or more; inactive = T/C below 125% in these data.

Test system: P388 leukemia ip, CD2F1 mice, survival T/C
Test: NCI In Vivo Anticancer Drug Screen. Data for tumor model P388 Leukemia (intraperitoneal) in CD2F1 (CDF1) mice
Settings: endpoint: median survival time, higher = longer survival
Method in brief: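 Mice carrying the transplanted tumor received test compound or vehicle. Survival was recorded in each group, and the value is the treated-group measurement divided by that of the vehicle-treated control group.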

[1] = dose: 25.0 mg/kg/injection, schedule: Q01DX009 (ip), vehicle: saline with Tween-80
[2] = dose: 50.0 mg/kg/injection, schedule: Q01DX009 (ip), vehicle: saline with Tween-80
[3] = dose: 100.0 mg/kg/injection, schedule: Q01DX009 (ip), vehicle: saline with Tween-80
[4] = dose: 200.0 mg/kg/injection, schedule: Q01DX009 (ip), vehicle: saline
[5] = dose: 25.0 mg/kg/injection, schedule: Q01DX009 (ip), vehicle: saline
[6] = dose: 50.0 mg/kg/injection, schedule: Q01DX009 (ip), vehicle: saline
[7] = dose: 100.0 mg/kg/injection, schedule: Q01DX001 (ip), vehicle: saline
[8] = dose: 200.0 mg/kg/injection, schedule: Q01DX001 (ip), vehicle: saline
[9] = dose: 200.0 mg/kg/injection, schedule: Q01DX009 (ip), vehicle: saline with Tween-80
[10] = dose: 100.0 mg/kg/injection, schedule: Q01DX009 (ip), vehicle: saline
[11] = dose: 12.5 mg/kg/injection, schedule: Q01DX009 (ip), vehicle: saline
[12] = dose: 200.0 mg/kg/injection, schedule: Q04DX003 (ip), vehicle: saline with Tween-80

Measured: T/C

CCOC(=O)N(C)C(C)=O
inactive: dose: 6.25 mg/kg/injection, schedule: Q01DX009 (ip), vehicle: saline with Tween-80 100 % of control | dose: 12.5 mg/kg/injection, schedule: Q01DX009 (ip), vehicle: saline with Tween-80 97 % of control | [1] 106 % of control | [2] 104 % of control | [3] 96 % of control | [4] 103 % of control

CC/C=C\C/C=C\C/C=C\CCCCCCCC(=O)O
inactive: dose: 40.0 mg/kg/injection, schedule: Q01DX009 (ip), vehicle: Klucel (hydroxypropylcellulose) (HPC) 92 % of control | dose: 80.0 mg/kg/injection, schedule: Q01DX009 (ip), vehicle: Klucel (hydroxypropylcellulose) (HPC) 100 % of control | dose: 160.0 mg/kg/injection, schedule: Q01DX009 (ip), vehicle: Klucel (hydroxypropylcellulose) (HPC) 98 % of control | dose: 320.0 mg/kg/injection, schedule: Q01DX009 (ip), vehicle: Klucel (hydroxypropylcellulose) (HPC) 95 % of control

CN1CCN(C(=S)C(O)(c2ccccc2)c2ccccc2)CC1
inactive: dose: 100.0 mg/kg/injection, schedule: Q01DX001 (ip), vehicle: Klucel (hydroxypropylcellulose) (HPC) 105 % of control | dose: 200.0 mg/kg/injection, schedule: Q01DX001 (ip), vehicle: Klucel (hydroxypropylcellulose) (HPC) 105 % of control | dose: 400.0 mg/kg/injection, schedule: Q01DX001 (ip), vehicle: Klucel (hydroxypropylcellulose) (HPC) 100 % of control

N=C(N)SCCN1C(=O)NC(c2ccccc2)(c2ccccc2)C1=O
inactive: dose: 25.0 mg/kg/injection, schedule: Q04DX003 (ip), vehicle: Klucel (hydroxypropylcellulose) (HPC) 114 % of control | dose: 50.0 mg/kg/injection, schedule: Q04DX003 (ip), vehicle: Klucel (hydroxypropylcellulose) (HPC) 114 % of control | dose: 100.0 mg/kg/injection, schedule: Q04DX003 (ip), vehicle: Klucel (hydroxypropylcellulose) (HPC) 96 % of control | dose: 200.0 mg/kg/injection, schedule: Q04DX003 (ip), vehicle: Klucel (hydroxypropylcellulose) (HPC) 114 % of control

Cc1c(C)n(-c2ccccc2)c2nc(C)n(-c3ccccc3Cl)c(=N)c12
inactive: dose: 50.0 mg/kg/injection, schedule: Q01DX005 (ip), vehicle: Klucel (hydroxypropylcellulose) (HPC) 97 % of control | dose: 100.0 mg/kg/injection, schedule: Q01DX005 (ip), vehicle: Klucel (hydroxypropylcellulose) (HPC) 90 % of control

O=C1NC(=O)C2(CCCC2=Nc2ccc(Br)cc2)C2C=CN(Cc3ccccc3)C=C12 (stereo unspecified)
inactive: dose: 25.0 mg/kg/injection, schedule: Q04DX003 (ip), vehicle: saline 107 % of control | dose: 50.0 mg/kg/injection, schedule: Q04DX003 (ip), vehicle: saline 107 % of control | dose: 100.0 mg/kg/injection, schedule: Q04DX003 (ip), vehicle: saline 105 % of control and 110 % of control | dose: 200.0 mg/kg/injection, schedule: Q04DX003 (ip), vehicle: saline 107 % of control

CCOC(=O)C(=C(SC)SC)[n+]1ccc(C)cc1
inactive: dose: 12.5 mg/kg/injection, schedule: Q04DX002 (ip), vehicle: saline with Tween-80 104 % of control

CCOC(=O)c1[nH]c(C)nc1/N=N/N(C)C
inactive: [5] 119 % of control | [6] 116 % of control | [4] 116 % of control

CN(C)C(=S)S(=O)(=O)c1ccccc1
inactive: dose: 12.5 mg/kg/injection, schedule: Q01DX009 (ip), vehicle: Klucel (hydroxypropylcellulose) (HPC) 123 % of control | dose: 25.0 mg/kg/injection, schedule: Q01DX009 (ip), vehicle: Klucel (hydroxypropylcellulose) (HPC) 123 % of control | dose: 50.0 mg/kg/injection, schedule: Q01DX009 (ip), vehicle: Klucel (hydroxypropylcellulose) (HPC) 123 % of control

CC1NCCCN(CCN(C)C)CCCNC(C)c2cccc1n2 (stereo unspecified)
inactive: dose: 50.0 mg/kg/injection, schedule: Q01DX001 (ip), vehicle: saline 103 % of control and 96 % of control | [7] 101 % of control and 114 % of control and 92 % of control | [8] 103 % of control and 122 % of control and 97 % of control

CCCCCCCCCCCCCCOc1ccc(C(C)=O)o1
inactive: [2] 95 % of control | [9] 100 % of control

Cc1ccccc1-[n+]1nc(-c2ccccc2)nn1-c1ccccc1
inactive: dose: 0.31 mg/kg/injection, schedule: Q01DX009 (ip), vehicle: saline with Tween-80 95 % of control | dose: 0.63 mg/kg/injection, schedule: Q01DX009 (ip), vehicle: saline with Tween-80 104 % of control | dose: 1.25 mg/kg/injection, schedule: Q01DX009 (ip), vehicle: saline with Tween-80 95 % of control

C=C1C(=O)[C@]23C[C@H]1CC[C@H]2[C@@]12CO[C@@H](O)[C@@H]1C(C)(C)[C@@H](O)C[C@@H]2OC3=O
inactive: dose: 3.8 mg/kg/injection, schedule: Q01DX008 (ip), vehicle: saline with Tween-80 100 % of control | dose: 7.5 mg/kg/injection, schedule: Q01DX008 (ip), vehicle: saline with Tween-80 102 % of control | dose: 7.5 mg/kg/injection, schedule: Q01DX009 (ip), vehicle: saline with Tween-80 113 % of control | dose: 15.0 mg/kg/injection, schedule: Q01DX008 (ip), vehicle: saline with Tween-80 94 % of control | dose: 15.0 mg/kg/injection, schedule: Q01DX009 (ip), vehicle: saline with Tween-80 123 % of control | dose: 30.0 mg/kg/injection, schedule: Q01DX008 (ip), vehicle: saline with Tween-80 102 % of control | dose: 30.0 mg/kg/injection, schedule: Q01DX009 (ip), vehicle: saline with Tween-80 117 % of control | dose: 60.0 mg/kg/injection, schedule: Q01DX009 (ip), vehicle: saline with Tween-80 113 % of control

O=[N+]([O-])c1cc(NC(=S)SCc2ccc(Cl)cc2)ccc1Cl
inactive: [1] 106 % of control | [5] 105 % of control | [2] 100 % of control | [6] 100 % of control | dose: 50.0 mg/kg/injection, schedule: Q01DX009 (ip), vehicle: suspension in saline 109 % of control | [3] 106 % of control | [10] 107 % of control | dose: 100.0 mg/kg/injection, schedule: Q01DX009 (ip), vehicle: suspension in saline 108 % of control | [9] 106 % of control | [4] 110 % of control | dose: 200.0 mg/kg/injection, schedule: Q01DX009 (ip), vehicle: suspension in saline 121 % of control

COC(CN1C(=O)CSC1=S)OC
inactive: [2] 114 % of control | [3] 117 % of control | [9] 117 % of control

c1n[nH]c2c1CCCC2
inactive: [11] 96 % of control | [5] 105 % of control | [6] 91 % of control | [10] 104 % of control

COc1cccc(N2C(=O)CSC2=S)c1
inactive: dose: 100.0 mg/kg/injection, schedule: Q04DX003 (ip), vehicle: saline with Tween-80 95 % of control | [12] 100 % of control | dose: 400.0 mg/kg/injection, schedule: Q04DX003 (ip), vehicle: saline with Tween-80 90 % of control

CC1C(=O)OC2CCN3CC4OC4(COC(=O)C(C)(O)C1(C)O)C23 (stereo unspecified)
inactive: dose: 132.0 mg/kg/injection, schedule: Q04DX003 (ip), vehicle: saline with Tween-80 90 % of control | [12] 110 % of control | dose: 300.0 mg/kg/injection, schedule: Q04DX003 (ip), vehicle: saline with Tween-80 100 % of control

CC1=Nc2ccc(Cl)cc2N=C(C)C1
inactive: [7] 106 % of control | [8] 107 % of control | dose: 400.0 mg/kg/injection, schedule: Q01DX001 (ip), vehicle: saline 100 % of control

CCCCCCCCCCCCCC[N+]1(CC)CCOCC1
inactive: dose: 3.12 mg/kg/injection, schedule: Q01DX009 (ip), vehicle: saline 119 % of control | dose: 6.25 mg/kg/injection, schedule: Q01DX009 (ip), vehicle: saline 115 % of control | [11] 123 % of control
